Values quoted from earlier work, collected in patent US20030082215A1 (priority 1999, published 2003).
Read-outs that look alike come from different tables or passages of the source.

bioavailability (conventional gelatin capsule form, after meals): 89%
bioavailability (conventional gelatin capsule form, on an empty stomach): 26%
bioavailability (gelatin capsule containing a 300 mg dose, healthy volunteers): ~30%
SMILES: CC(C)OC(=O)C(C)(C)Oc1ccc(C(=O)c2ccc(Cl)cc2)cc1 [fenofibrate]
